According to patent US7795299B2, “Neo-tanshinlactone and analogs as potent and selective anti-breast cancer agents” (The University of North Carolina at Chapel Hill, priority 2004, dated 2010):
Converted amounts (≈) assume the structure as drawn.

What was measured:
[1] = test system: MCF-7 (estrogen receptor positive breast cancer); test: In vitro anticancer assay (SRB), MCF-7; assay type: cell-based, human; details: for IC50: MCF7, 72 h, read-out: ED50, MCF-7 (ER+)
Method: (§1) All stock cultures were grown in T-25 flasks. Freshly trypsinized cell suspensions were seeded in 96-well microtiter plates at densities of 1500-7500 cells per well with compounds added from DMSO-diluted stock. After 3 days in culture, attached cells were fixed with cold 50% trichloroacetic acid and then stained with 0.4% sulforhodamine B (SRB). The absorbency at 562 nm was measured using a microplate reader after solubilizing the bound dye.
(§2) Biological assay. All stock cultures are grown in T-25 flasks. Freshly trypsinized cell suspensions were seeded in 96-well microtitre plates at densities of 1500-7500 cells per well with compounds added from DMSO-diluted stock. After 3 days in culture, attached cells were fixed with cold 50% trichloroacetic acid and then stained with 0.4% sulforhodamine B (SRB). The absorbency at 562 nm was measured using a microplate reader after solubilizing the bound dye.

[2] = test system: MDA-MB-231 (estrogen receptor negative breast cancer); test: In vitro anticancer assay (SRB), MDA-MB-231; assay type: cell-based, human; details: concentration that reduces cell growth by 50%, 3 days in culture, SRB; for IC50: Homo sapiens, MDA-MB-231, 72 h, read-out: ED50, MDA-MB-231 (ER−)
Method: as §1, §2

[3] = test system: ZR-75-1 (estrogen receptor positive breast cancer); test: In vitro anticancer assay (SRB), ZR-75-1; assay type: cell-based, human; details: Homo sapiens, ZR-75-1, 72 h, concentration that reduces cell growth by 50%, 3 days in culture, read-out: ED50, ZR-75-1 (ER+)
Method: as §1, §2

[4] = test system: HS 587-T (estrogen receptor negative breast cancer); test: In vitro anticancer assay (SRB), HS 587-T; assay type: cell-based, human; details: concentration that reduces cell growth by 50%, 3 days in culture, printed HS587-1 in Table 4
Method: as §1, §2

[5] = test system: SK-BR-3 (HER-2-overexpressing breast cancer); test: In vitro anticancer assay (SRB), SK-BR-3; assay type: cell-based, human; details: Homo sapiens, SK-BR-3, 72 h; concentration that reduces cell growth by 50%, 3 days in culture, SRB; read-out: ED50, SK-BR-3 (ER−, HER2+)
Method: (§3) In Vitro Anticancer Assay (Nakanishi, Y. et al., J. Med. Chem. 2003, 46, 3185). All stock cultures were grown in T-25 flasks. Freshly trypsinized cell suspensions were seeded in 96-well microtiter plates at densities of 1500-7500 cells per well with compounds added from DMSO-diluted stock. After 3 days in culture, attached cells were fixed with cold 50% trichloroacetic acid and then stained with 0.4% sulforhodamine B (SRB). The absorbency at 562 nm was measured using a microplate reader after solubilizing the bound dye. The mean ED50 is the concentration of agent that reduces cell growth by 50% under the experimental conditions and is the average from at least three independent determinations that were reproducible and statistically significant (FIG. 2). The following human tumor cell lines were used in the assay: A549 (non small cell lung cancer), MCF-7 (estrogen receptor positive breast cancer), ZR-75-1 (estrogen receptor positive breast cancer), MDA-MB-231 (estrogen receptor negative breast cancer), HS 587-T (estrogen receptor negative breast cancer), SK− BR-3 (HER-2-overexpressing breast cancer), A431 (EGFRoverexpressing skin cancer), LN-CaP (AR-dependent prostate cancer), SW620 (colon cancer), PC-3 (prostate cancer), KB (nasopharyngeal carcinoma), KB-VIN (vincristine-resistant KB subline). All cell lines were obtained from the Lineberger Comprehensive Cancer Center (UNC-CH) or from ATCC (Rockville, Md.) and were cultured in RPMI-1640 medium supplemented with 25 mMHEPES, 0.25% sodium bicarbonate, 10% fetal bovine serum, and 100 μg/mL kanamycin.
(§4) Biological assay. All stock cultures are grown in T-25 flasks. Freshly trypsinized cell suspensions were seeded in 96-well microtitre plates at densities of 1500-7500 cells per well with compounds added from DMSO-diluted stock. After 3 days in culture, attached cells were fixed with cold 50% trichloroacetic acid and then stained with 0.4% sulforhodamine B (SRB). The absorbency at 562 nm was measured using a microplate reader after solubilizing the bound dye. The mean ED50 is the concentration of agent that reduces cell growth by 50% under the experimental conditions and is the average from at least three independent determinations that were reproducible and statistically significant. The following human tumor cell lines were used in the assay: A549 (non-small cell lung cancer), MCF-7 (estrogen receptor positive breast cancer), ZR-75-1 (estrogen receptor positive breast cancer), MDA MB-231 (estrogen receptor negative breast cancer), HS 587-T (estrogen receptor negative breast cancer), SK-BR-3 (estrogen receptor negative, HER-2 over-expressing breast cancer), A431 (EGFR over-expressing skin cancer), LN-CaP (AR-dependent prostate cancer), SW620 (colon cancer), PC-3 (prostate cancer), KB (nasopharyngeal carcinoma), KB-VIN (Vincristine resistant KB subline). All cell lines were obtained from the Lineberg Cancer Center (UNC-CH) or from ATCC (Rockville, Md.) and were cultured in RPMI-1640 medium supplemented with 25 mM HEPES, 0.25% sodium bicarbonate, 10% fetal bovine serum, and 100 μg/mL kanamycin.

[6] = test system: A431 (EGFR over-expressing skin cancer); test: In vitro anticancer assay (SRB), A431; assay type: cell-based, human; details: Homo sapiens, A-431, 72 h; concentration that reduces cell growth by 50%, 3 days in culture, SRB; read-out: ED50, A431
Method: as §3, §4

[7] = test system: SW620 (colon cancer); test: In vitro anticancer assay (SRB), SW620; assay type: cell-based, human; details: Homo sapiens, SW-620, 72 h; concentration that reduces cell growth by 50%, 3 days in culture, SRB; read-out: ED50, SW620
Method: as §3, §4

[8] = test system: KB (nasopharyngeal carcinoma); test: In vitro anticancer assay (SRB), KB; assay type: cell-based, human; details: Homo sapiens, 72 h; concentration that reduces cell growth by 50%, 3 days in culture, SRB; read-out: ED50, KB
Method: as §3, §4

[9] = test system: ER+ human breast cancer (MCF-7 and ZR-75-1); test: Comparison of potency and selectivity against ER+ breast cancer cell lines in vitro; assay type: cell-based; details: against ER+ cell lines
Method: as §3
as §2, with “dye. The mean ED50 is the concentration of agent that reduces cell growth by 50% under the experimental conditions and is the average from at least three independent determinations that were reproducible and statistically significant. […]” for “dye.”

[10] = test system: several human cancer cell lines; test: Cytotoxic activity against several human tumor cell lines (panel, overall statements); assay type: cell-based; details: several human tumor cell lines, Table 4
Method: as §3
Biological assay. All stock cultures are grown in T-25 flasks. Freshly trypsinized cell suspensions were seeded in 96-well microtitre plates at densities of 1500-7500 cells per well with compounds added from DMSO-diluted stock. After 3 days in culture, attached cells were fixed with cold 50% trichloroacetic acid and then stained with 0.4% sulforhodamine B (SRB). The absorbency at 562 nm was measured using a microplate reader after solubilizing the bound dye. […]

[11] = Homo sapiens, concentration that reduces cell growth by 50%, 3 days in culture, SRB

## Cc1coc2c1c(=O)oc1c3ccccc3ccc21 [Compound 2a, 17-Methyl-11,15-dioxa-cyclopenta[a]phenanthren-12-one]
[1]; [11]
  IC50: 4 µg/mL (≈ 16 µM)
[2]
  IC50: 10.3 µg/mL (≈ 41.2 µM)
[3]
  IC50: 4 µg/mL (≈ 16 µM)
[4]
  ED50, HS 587-T (ER−): 7.5 µg/mL (≈ 30 µM)
other
  melting point: 205 to 207 °C

## CCc1cccc2c1ccc1c3occ(C)c3c(=O)oc21 [Compound 2c, 4-Ethyl-17-methyl-11,15-dioxa-cyclopenta[a]phenanthren-12-one]
[1]; [11]
  IC50: 0.45 µg/mL (≈ 1.62 µM)
[2]
  IC50: 10.3 µg/mL (≈ 37 µM)
[3]
  IC50: 0.18 µg/mL (≈ 0.647 µM)
[4]
  ED50, HS 587-T (ER−): 10 µg/mL (≈ 35.9 µM)
[5]
  IC50: 0.1 µg/mL (≈ 0.359 µM)
[6]
  IC50: > 10 µg/mL
[7]
  IC50: > 10 µg/mL
[8]
  IC50: > 10 µg/mL
[9]
  times better activity than compound 2a and tamoxifen: 10 times
other
  melting point: 145 to 147 °C

## Cc1coc2c1c(=O)oc1c3ccccc3c(Cl)cc21 [Compound 2d, 6-Chloro-17-methyl-11,15-dioxa-cyclopenta[a]phenanthren-12-one]
[1]; [11]
  IC50: 5 µg/mL (≈ 17.6 µM)
[3]
  IC50: 8.6 µg/mL (≈ 30.2 µM)
[5]
  IC50: 4.5 µg/mL (≈ 15.8 µM)
[6]
  IC50: 8 µg/mL (≈ 28.1 µM)
[7]
  IC50: > 10 µg/mL
[8]
  IC50: > 10 µg/mL
[10]
  overall cytotoxic activity (in words): did not show strong activity
other
  melting point: 220 to 221 °C

## O=c1oc2c(ccc3ccccc32)c2c1C(O)CO2 (stereo not drawn) [Compound 3a, 17-Hydroxy-16,17-dihydro-11,15-dioxa-cyclopenta[a]phenanthren-12-one]
[1]; [11]
  IC50: 12.5 µg/mL (≈ 49.2 µM)
[2]
  IC50: 3.8 µg/mL (≈ 14.9 µM)
other
  melting point: 203 to 205 °C

## Cc1cccc2c1ccc1c3c(c(=O)oc12)C(O)CO3 (stereo not drawn) [Compound 3b, 17-Hydroxy-4-methyl-16,17-dihydro-11,15-dioxa-cyclopenta[a]phenanthren-12-one]
[1]; [11]
  IC50: 8.3 µg/mL (≈ 30.9 µM)
[3]
  IC50: > 10 µg/mL
[5]
  IC50: 8 µg/mL (≈ 29.8 µM)
[6]
  IC50: 3.2 µg/mL (≈ 11.9 µM)
[7]
  IC50: > 10 µg/mL
[8]
  IC50: > 10 µg/mL

## CCc1cccc2c1ccc1c3c(c(=O)oc12)C(O)CO3 (stereo not drawn) [Compound 3c, 4-Ethyl-17-hydroxy-16,17-dihydro-11,15-dioxa-cyclopenta[a]phenanthren-12-one]
[1]; [11]
  IC50: 5 µg/mL (≈ 17.7 µM)
[2]
  IC50: 5 µg/mL (≈ 17.7 µM)
[6]
  IC50: 3 µg/mL (≈ 10.6 µM)
other
  melting point: 163 to 165 °C

## O=c1oc2c(cc(Cl)c3ccccc32)c2c1C(O)CO2 (stereo not drawn) [Compound 3d, 6-Chloro-17-hydroxy-16,17-dihydro-11,15-dioxa-cyclopenta[a]phenanthren-12-one]
[1]; [11]
  IC50: 5.6 µg/mL (≈ 19.4 µM)
[3]
  IC50: > 10 µg/mL
[5]
  IC50: 8 µg/mL (≈ 27.7 µM)
[6]
  IC50: 7.8 µg/mL (≈ 27 µM)
[7]
  IC50: 4.2 µg/mL (≈ 14.5 µM)
[8]
  IC50: 9.5 µg/mL (≈ 32.9 µM)
other
  melting point: 150 °C

## COc1cc2c3c(c(=O)oc2c2ccccc12)C(O)CO3 (stereo not drawn) [Compound 3e, 17-Hydroxy-6-methoxy-16,17-dihydro-11,15-dioxa-cyclopenta[a]phenanthren-12-one]
[1]; [11]
  IC50: 5.6 µg/mL (≈ 19.7 µM)
[3]
  IC50: 5.7 µg/mL (≈ 20.1 µM)
[5]
  IC50: 9 µg/mL (≈ 31.7 µM)
[6]
  IC50: 6.5 µg/mL (≈ 22.9 µM)
[7]
  IC50: > 10 µg/mL
[8]
  IC50: 6.8 µg/mL (≈ 23.9 µM)
other
  melting point: 210 to 212 °C

## O=c1oc2c3ccccc3ccc2c2occc12 [Compound 4a, 11,15-Dioxa-cyclopenta[a]phenanthren-12-one]
[1]; [11]
  IC50: > 20 µg/mL
[1]; Homo sapiens, MCF7, at 20 μg/mL (Table 4), read-out: Percent inhibition at the test concentration (bracketed value), MCF-7
  inhibition at 20 µg/mL: 17%
[2]
  IC50: 10.5 µg/mL (≈ 44.4 µM)
other
  melting point: 198 to 200 °C

## Cc1cccc2c1ccc1c3occc3c(=O)oc21 [Compound 4b, 4-Methyl-11,15-dioxa-cyclopenta[a]phenanthren-12-one]
[1]; [11]
  IC50: 5.5 µg/mL (≈ 22 µM)
[3]
  IC50: > 10 µg/mL
[5]
  IC50: 8.5 µg/mL (≈ 34 µM)
[6]
  IC50: 8.3 µg/mL (≈ 33.2 µM)
[7]
  IC50: > 10 µg/mL
[8]
  IC50: > 10 µg/mL
other
  melting point: 220 to 222 °C

## CCc1cccc2c1ccc1c3occc3c(=O)oc21 [Compound 4c, 4-Ethyl-11,15-dioxa-cyclopenta[a]phenanthren-12-one]
[1]; [11]
  IC50: > 10 µg/mL
[2]
  IC50: > 10 µg/mL
other
  melting point: 173 to 174 °C

## O=c1oc2c3ccccc3c(Cl)cc2c2occc12 [Compound 4d, 6-Chloro-11,15-dioxa-cyclopenta[a]phenanthren-12-one]
[1]; [11]
  IC50: 7 µg/mL (≈ 25.9 µM)
[3]
  IC50: > 10 µg/mL
[5]
  IC50: > 10 µg/mL
[6]
  IC50: > 10 µg/mL
[7]
  IC50: > 10 µg/mL
[8]
  IC50: > 10 µg/mL
other
  melting point: 150 °C

## COc1cc2c3occc3c(=O)oc2c2ccccc12 [Compound 4e, 6-Methoxy-11,15-dioxa-cyclopenta[a]phenanthren-12-one]
[1]; [11]
  IC50: 3.4 µg/mL (≈ 12.8 µM)
[3]
  IC50: 8.5 µg/mL (≈ 31.9 µM)
[5]
  IC50: 4 µg/mL (≈ 15 µM)
[6]
  IC50: 9.5 µg/mL (≈ 35.7 µM)
[7]
  IC50: 4 µg/mL (≈ 15 µM)
[8]
  IC50: 9.5 µg/mL (≈ 35.7 µM)
other
  melting point: 194 to 195 °C

## C[C@H]1COC2=C1C(=O)C(=O)c1c2ccc2c1CCCC2(C)C [cryptotanshinone, reference compound]
[1]; [11]
  IC50: 0.41 µg/mL (≈ 1.38 µM)
[2]
  IC50: 0.16 µg/mL (≈ 0.54 µM)

## Cc1coc2c1C(=O)C(=O)c1c-2ccc2c(C)cccc12 [tanshinone I, reference compound]
[1]; concentration that reduces cell growth by 50%, 3 days in culture, SRB
  ED50, MCF-7 (ER+): 0.82 µg/mL (≈ 2.97 µM)
[2]
  ED50, MDA-MB-231 (ER−): 0.75 µg/mL (≈ 2.71 µM)

## Cc1coc2c1C(=O)C(=O)c1c-2ccc2c1CCCC2(C)C [tanshinone IIA, reference compound]
[1]; [11]
  IC50: 0.38 µg/mL (≈ 1.29 µM)
[2]
  IC50: 0.7 µg/mL (≈ 2.38 µM)
